Several values for one entry are separate records, joined by “and”; a condition that tells them apart may be missing. Equal values may be shown once.

In assay [1] the test system is cloned mammalian (mSlo or hSlo) BK channels heterologously expressed in Xenopus oocytes. As to the kind of experiment: BK-mediated outward current in Xenopus oocytes, two-electrode voltage clamp. The following applies: for Current: compounds at 10 μM, IBTX at supramaximal concentration (50-100 nM); for BK Current: at 10 μM, percent increase over BK current in controls, voltage step to +140 mV, IBTX-sensitive current. The format is cell-based. The protocol: The ability of the compounds of the invention to open BK channels and increase whole-cell outward (K+) BK-mediated currents was assessed under voltage-clamp conditions by determining their ability to increase cloned mammalian (mSlo or hSlo) BK—mediated outward current heterologously expressed in Xenopus oocytes [Butler, A., et al., Science, 261: 221-224 (1993); Dworetzky, S. I., et al., Mol. Brain Res., 27: 189-193 (1994); Gribkoff, V. K., et al., Mol. Pharmacol., 50:206-217 (1996)]. The two BK constructs employed represent nearly structurally identical homologous proteins, and have proven to be pharmacologically indistinguishable in our tests. To isolate BK current from native (background, non-BK) current, the specific and potent BK channel-blocking toxin iberiotoxin (IBTX) [Galvez, A., et al., J. Biol. Chem., 265: 11083-11090 (1990)] was employed at a supramaximal concentration, e.g., 50-100 nanomolar (“nM”). The relative contribution of BK channel-mediated current to total outward current was determined by subtraction of the current remaining in the presence of IBTX (non-BK current) from the current profiles obtained in all other experimental conditions (control, drug, and wash) [Gribkoff, V. K. et al., Mol. Pharmacol., 50:206-217 (1996)]. […] All compounds were tested in 5-10 oocytes and are reported at the indicated concentration of 10 micromolar (“μM”); the effect of the selected compounds of the invention on BK current was expressed as the percent of control IBTX-sensitive current at a single transmembrane voltage (+140 mV) and is listed in Table 1. Recordings were accomplished using standard two-electrode voltage clamp techniques [Stuhmer, W., et al., Methods in Enzymology, Vol. 207: 319-339 (1992)]; voltage-clamp protocols consisted of 500-750 milliseconds (“ms”) duration step depolarizations, from a holding potential of −60 mV, to a final voltage up to +140 mV in 20 mV steps. Table 2 lists the current-voltage (I-V) data for two compounds of the invention, applied to oocytes at a concentration of 10 μM. The experimental media (modified Barth's solution) consisted of millimolar (“mM”): NaCl (88), NaHCO3 (2.4), KCl (1.0), HEPES (10), MgSO4 (0.82), Ca(NO3)2 (0.33), CaCl2 (0.41); pH 7.5.

The test system of assay [2] is stress-induced colonic motility (fecal pellet output). As to the kind of experiment: Air jet stress-induced colonic motor activity. In kind it is in vivo. The note with it: rats, 20 mg/kg ip. The protocol:
Environmental stress is believed to play a role in irritable bowel syndrome and other altered bowel motility states. […] Based on this, we tested the hypothesis that maxi-K^+potassium channel openers of the present invention can be effective in reducing stress-induced acceleration in colonic motility, as indexed by fecal pellet output.
Rats were randomly divided into 2 groups and treated with vehicle (polyethylene glycol (400 grams per mole), 1 mL/kg, ip) or the compound of Example 1 in racemate form (20 mg/kg) at time zero. At 1.5 hr post-treatment, each rat was partially restrained in plexiglas container and was subjected to air-jet stress. This was brought about by exposing each of the partially-restrained animals to 3-4 episodes of 2 minute long air jets with an interval of 8-10 minutes between episodes. The fecal output was collected and the wet weight was recorded. The data were analyzed by combining individual output within each group to calculate a group mean and the means were compared using a statistical test (unpaired, two-tailed t-test; p<0.05).

Consider “iberiotoxin (QFTDVDCSVSKECWSVCKDLFGVDRGKCMGKKCRCYQ; UniProt P24663 1-37, looked up) [IBTX, reference compound]”, for which the Current is recorded as 0 μA in assay [1] (voltage 0 mV); 0 μA in assay [1] (voltage 20 mV); 0 μA in assay [1] (voltage 40 mV); 0 μA in assay [1] (voltage 60 mV); 0.1 μA in assay [1] (voltage 80 mV); 0.2 μA in assay [1] (voltage 100 mV). Moreover, the Current in assay [1] (voltage 120 mV) is on record as 0.6 μA; in assay [1] (voltage 140 mV), 1.2 μA; in assay [1] (voltage −20 mV), 0 μA; in assay [1] (voltage −40 mV), 0 μA.

As to `O=c1[nH]c2ccc(C(F)(F)F)cc2c(-c2cc(Cl)ccc2O)c1CCO` (racemic) [Example 1, 4-(5-Chloro-2-hydroxyphenyl)-3-(2-hydroxyethyl)-6 (trifluoromethyl)-2(1H)-Quinolinone], the “fecal output (wet weight, group mean)” value in assay [2] (air-jet stress 1.5 hr post-treatment, vehicle group 0.37 grams) worked out at 0.03 grams. Moreover, the “animals showing a defecatory response to air-jet” value in assay [2] (vehicle group 9/12) is 3 out of 11. Also, the Current in assay [1] (voltage 0 mV) came out at 0.2 μA; in assay [1] (voltage 20 mV) it was 0.7 μA; in assay [1] (voltage 40 mV) it was 1.8 μA; in assay [1] (voltage 60 mV) it was 3.3 μA; in assay [1] (voltage 80 mV), 4.9 μA; in assay [1] (voltage 100 mV) it was 6.6 μA. Besides, the Current in assay [1] (voltage 120 mV) was determined as 8.4 μA; in assay [1] (voltage 140 mV) it was 10.2 μA; in assay [1] (voltage −20 mV), 0 μA; in assay [1] (voltage −40 mV) it was 0 μA.

Take `Cn1c(=O)c(CCO)c(-c2cc(Cl)ccc2O)c2cc(C(F)(F)F)ccc21` [Example 2]: the Current in assay [1] (voltage 0 mV) came out at 0 μA; in assay [1] (voltage 20 mV), 0 μA; in assay [1] (voltage 40 mV), 0.2 μA; in assay [1] (voltage 60 mV), 0.6 μA; in assay [1] (voltage 80 mV), 1.4 μA; in assay [1] (voltage 100 mV), 2.5 μA. Further, the Current in assay [1] (voltage 120 mV) is 3.9 μA; in assay [1] (voltage 140 mV), 5.6 μA; in assay [1] (voltage −20 mV), 0 μA; in assay [1] (voltage −40 mV) it was 0 μA.

Take `O=c1[nH]c2ccc(C(F)(F)F)cc2c(-c2cc(Cl)ccc2O)c1CCO` (single isomer, unassigned) [Example 3-atropisomer B, (+) 4-(5-Chloro-2-hydroxy-phenyl)-3-(2-hydroxy-ethyl)-6-trifluoromethyl-1H-quinolin2-one]: the “BK Current” value in assay [1] (listed as 3-atropisomer B) is recorded as 213.9 ± 21.4%.

Turning to `Cn1c(=O)c(CCO)c(-c2cc(Cl)ccc2O)c2cc(C(F)(F)F)ccc21` (single isomer, unassigned) [Example 5-atropisomer A, (−) 4-(5-Chloro-2-hydroxy-phenyl)-1-methyl-3-(2-hydroxy-ethyl)-6-trifluoromethyl-1H-quinolin2-one], the “BK Current” value in assay [1] was 360.8 ± 29.6% and 183.6 ± 9.50%.

As to `O=c1[nH]c2ccc(C(F)(F)F)cc2c(-c2cc(Cl)ccc2O)c1CCO` (single isomer, unassigned) [Example 3-atropisomer A, (−) 4-(5-Chloro-2-hydroxy-phenyl)-3-(2-hydroxy-ethyl)-6-trifluoromethyl-1H-quinolin2-one], the “BK Current” value in assay [1] (listed as 3-atropisomer A) was 291.8 ± 26.8%.
